Results reported in US20100010057A1, “THIAZOLE DERIVATIVES AS INHIBITORS OF P13 KINASE” (CHROMA THERAPEUTICS LTD., priority 2006, published 2010).

Experiments:
[1] = target: PI3Kγ (human) (Homo sapiens, UniProt P48736); assay: Inhibition of PI3 kinase γ activity (HTRF); assay type: biochemical; conditions: ATP at or close to Km, IC50 range, read-out: Inhibitor activity versus PI3 Kinase γ
Protocol: (B) Inhibition of PI3 Kinase V Activity
In a final reaction volume of 20 μl, PI3Kγ (human) is incubated in assay buffer containing 10 μM phosphatidylinositol-4,5-bisphosphate and MgATP (concentration as required). The reaction is initiated by the addition of the MgATP mix. After incubation for 30 minutes at room temperature, the reaction is stopped by the addition of 5 μl of stop solution containing EDTA and biotinylated phosphatidylinositol-3,4,5-trisphosphate. Finally, 5 μl of detection buffer is added, which contains europium-labelled anti-GST monoclonal antibody, GST-tagged GRP1 PH domain and streptavidin-allophycocyanin. The plate is then read in time-resolved fluorescence mode and the homogenous time-resolved fluorescence (HTRF) signal is determined according to the formula HTRF=10000×(Em665 nm/Em620 nm).
Duplicate data points are generated from a ⅓ log dilution series of a stock solution of compound in DMSO. Nine dilutions steps are made from a top concentration of 10 μM, and a ‘no compound’ blank is included. The HTRF PI 3-Kinase assay is performed at an ATP concentration at, or close to, the Km. HTRF ratio data is transformed into % activity of controls and analysed with a four parameter sigmoidal dose-response (variable slope) application. QC criteria is based on Top, Bottom, Hill slope, r^2 and IC50, the concentration giving 50% inhibition, which is reported.
(§1) For each of the assays (B), (C) and (D) above, IC50 values are allocated to one of three ranges as follows: […]

[2] = system: THP-1 cells; assay: LPS-stimulation of THP-1 cells, TNF-α release; assay type: cell-based; conditions: Homo sapiens, LPS 1 μg/ml, 6 h, TNF-α by ELISA, IC50 range, read-out: Inhibitor activity versus THP-1 TNFα release
Protocol: (C) LPS-Stimulation of THP-1 Cells
THP-1 cells are plated in 100 μl at a density of 4×10^4 cells/well in V-bottomed 96 well tissue culture treated plates and incubated at 37° C. in 5% CO2 for 16 h. 2 h after the addition of the inhibitor in 100 μl of tissue culture media, the cells are stimulated with LPS (E. coli strain 005:B5, Sigma) at a final concentration of 1 μg/ml and incubated at 37° C. in 5% CO2 for 6 h. TNF-α levels are measured from cell-free supernatants by sandwich ELISA (R&D Systems #QTA00B)
as §1

PI3Kγ (human), sequence (P48736 whole entry): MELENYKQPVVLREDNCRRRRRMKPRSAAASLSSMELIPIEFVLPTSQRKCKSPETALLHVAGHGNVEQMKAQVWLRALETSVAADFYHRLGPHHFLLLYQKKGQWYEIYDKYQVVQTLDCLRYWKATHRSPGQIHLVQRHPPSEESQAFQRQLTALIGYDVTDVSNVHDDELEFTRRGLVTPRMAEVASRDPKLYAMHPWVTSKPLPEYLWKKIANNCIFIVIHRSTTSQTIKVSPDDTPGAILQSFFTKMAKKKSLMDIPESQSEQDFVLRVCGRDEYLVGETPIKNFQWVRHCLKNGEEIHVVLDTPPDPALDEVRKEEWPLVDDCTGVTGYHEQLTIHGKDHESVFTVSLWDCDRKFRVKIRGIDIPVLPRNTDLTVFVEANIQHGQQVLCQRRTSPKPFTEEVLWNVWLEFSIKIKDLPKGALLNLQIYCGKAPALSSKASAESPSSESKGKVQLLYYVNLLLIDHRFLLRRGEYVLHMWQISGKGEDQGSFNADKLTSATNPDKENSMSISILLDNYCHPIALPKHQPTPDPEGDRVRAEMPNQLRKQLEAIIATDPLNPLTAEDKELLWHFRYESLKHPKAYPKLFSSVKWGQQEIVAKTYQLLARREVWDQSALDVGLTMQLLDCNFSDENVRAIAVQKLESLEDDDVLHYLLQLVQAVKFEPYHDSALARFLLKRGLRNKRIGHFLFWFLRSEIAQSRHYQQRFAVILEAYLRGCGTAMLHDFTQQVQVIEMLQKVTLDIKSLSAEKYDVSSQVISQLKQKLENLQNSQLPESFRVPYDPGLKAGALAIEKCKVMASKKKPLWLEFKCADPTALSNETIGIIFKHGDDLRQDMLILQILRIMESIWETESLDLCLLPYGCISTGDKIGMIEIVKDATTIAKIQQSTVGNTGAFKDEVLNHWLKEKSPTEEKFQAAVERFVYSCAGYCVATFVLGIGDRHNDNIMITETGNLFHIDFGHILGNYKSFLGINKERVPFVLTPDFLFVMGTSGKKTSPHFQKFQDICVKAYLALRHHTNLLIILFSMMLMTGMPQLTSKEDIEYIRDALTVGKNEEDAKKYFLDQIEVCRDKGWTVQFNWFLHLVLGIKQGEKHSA

| SMILES | IC50 [1] [nM] | IC50 [2] [nM] |
| --- | --- | --- |
| Cc1nc(NC(=O)CCCN[C@@H](COC(C)(C)C)C(=O)OC(C)(C)C)sc1-c1ccc(Cl)c(S(C)(=O)=O)c1 [Example 15, tert-Butyl O-tert-butyl-N-[4-({5-[4-chloro-3-(methylsulfonyl)phenyl]-4-methyl-1,3-thiazol-2-yl}amino)-4-oxobutyl]-L-serinate] | > 1000 | > 1000 |
| Cc1nc(NC(=O)N[C@@H](Cc2ccccc2)C(=O)O)sc1-c1ccc(Cl)c(S(C)(=O)=O)c1 [Example 31, N-({5-[4-Chloro-3-(methylsulfonyl)phenyl]-4-methyl-1,3-thiazol-2-yl}carbamoyl)-L-phenylalanine] | > 1000 |  |
| Cc1nc(NC(=O)N[C@@H](COC(C)(C)C)C(=O)OC2CCCC2)sc1-c1ccc(Cl)c(S(C)(=O)=O)c1 [Example 4, Cyclopentyl O-tert-butyl-N-({5-[4-chloro-3-(methylsulfonyl)phenyl]-4-methyl-1,3-thiazol-2-yl}carbamoyl)-L-serinate] | 100 to 1000 | > 1000 |
| Cc1nc(NC(=O)CCCN[C@@H](C(=O)OC2CCCC2)c2ccccc2)sc1-c1ccc(Cl)c(S(C)(=O)=O)c1 [Example 9, Cyclopentyl (2R)-{[4-({5-[4-chloro-3-(methylsulfonyl)phenyl]-4-methyl-1,3-thiazol-2-yl}amino)-4-oxobutyl]amino}(phenyl)acetate] | 100 to 1000 | > 1000 |
| CC(=O)Nc1nc(C)c(-c2ccc(Cl)c(S(=O)(=O)N[C@@H](COC(C)(C)C)C(=O)O)c2)s1 [Example 42, N-{[5-(2-Acetamido-4-methyl-1,3-thiazol-5-yl)-2-chlorophenyl]sulfonyl}-O-tert-butyl-L-serine] | > 1000 |  |
| CC(=O)Nc1nc(C)c(-c2ccc(Cl)c(S(=O)(=O)N[C@@H](C)C(=O)OC3CCCC3)c2)s1 [Example 20, Cyclopentyl N-{[5-(2-acetamido-4-methyl-1,3-thiazol-5-yl)-2-chlorophenyl]sulfonyl}-L-alaninate] | < 100 | > 1000 |
| CC(=O)Nc1nc(C)c(-c2ccc(Cl)c(S(=O)(=O)NCCN[C@@H](CC(C)C)C(=O)OC3CCCC3)c2)s1 [Example 22, Cyclopentyl N-[2-({[5-(2-acetamido-4-methyl-1,3-thiazol-5-yl)-2-chlorophenyl]sulfonyl}amino)ethyl]-L-leucinate] | > 1000 | > 1000 |
| Cc1nc(NCCCN[C@@H](CC(C)C)C(=O)O)sc1-c1ccc(Cl)c(S(C)(=O)=O)c1 [Example 39, N-[3-({5-[4-Chloro-3-(methylsulfonyl)phenyl]-4-methyl-1,3-thiazol-2-yl}amino)propyl]-L-leucine] | > 1000 |  |
| Cc1nc(NC(=O)CCCN[C@H](C(=O)O)c2ccccc2)sc1-c1ccc(Cl)c(S(C)(=O)=O)c1 [Example 35, (2S)-{[4-({5-[4-Chloro-3-(methylsulfonyl)phenyl]-4-methyl-1,3-thiazol-2-yl}amino)-4-oxobutyl]amino}(phenyl)acetic acid] | > 1000 |  |
| Cc1nc(NCC2CCC(N[C@@H](CC(C)C)C(=O)OC(C)(C)C)CC2)sc1-c1ccc(Cl)c(S(C)(=O)=O)c1 (stereo partly drawn) [Example 19, tert-Butyl N-{4-[({5-[4-chloro-3-(methylsulfonyl)phenyl]-4-methyl-1,3-thiazol-2-yl}amino)methyl]cyclohexyl}-L-leucinate] | > 1000 | > 1000 |
| CC(=O)Nc1nc(C)c(-c2ccc(Cl)c(S(=O)(=O)N[C@@H](CO)C(=O)O)c2)s1 [Example 44, N-{[5-(2-Acetamido-4-methyl-1,3-thiazol-5-yl)-2-chlorophenyl]sulfonyl}-L-serine] | > 1000 |  |
| Cc1nc(NC(=O)CCCN[C@@H](C(=O)O)c2ccccc2)sc1-c1ccc(Cl)c(S(C)(=O)=O)c1 [Example 34, (2R)-{[4-({5-[4-Chloro-3-(methylsulfonyl)phenyl]-4-methyl-1,3-thiazol-2-yl}amino)-4-oxobutyl]amino}(phenyl)acetic acid] | > 1000 |  |
| Cc1nc(NC(=O)CCCN[C@@H](CC(C)C)C(=O)O)sc1-c1ccc(Cl)c(S(C)(=O)=O)c1 [Example 32, N-4-({5-[4-Chloro-3-(methylsulfonyl)phenyl-4-methyl-1,3-thiazol-2-yl}amino)-4-oxobutyl]-L-leucine] | > 1000 |  |
| Cc1nc(NCC2CCC(N[C@@H](CC(C)C)C(=O)O)CC2)sc1-c1ccc(Cl)c(S(C)(=O)=O)c1 (stereo partly drawn) [Example 40, N-{4-[({5-[4-Chloro-3-(methylsulfonyl)phenyl]-4-methyl-1,3-thiazol-2-yl}amino)methyl]cyclohexyl}-L-leucine] | > 1000 |  |
| Cc1nc(NC(=O)CCCN[C@@H](CCC(=O)O)C(=O)OC2CCCC2)sc1-c1ccc(Cl)c(S(C)(=O)=O)c1 [Example 8, (4S)-4-{[4-({5-[4-Chloro-3-(methylsulfonyl)phenyl]-4-methyl-1,3-thiazol-2-yl}amino)-4-oxobutyl]amino}-5-(cyclopentyloxy)-5-oxopentanoic acid] | 100 to 1000 |  |
| CC(=O)Nc1nc(C)c(-c2ccc(Cl)c(S(=O)(=O)N[C@@H](C)C(=O)O)c2)s1 [Example 41, N-{[5-(2-Acetamido-4-methyl-1,3-thiazol-5-yl)-2-chlorophenyl]sulfonyl}-L-alanine] | > 1000 |  |
| Cc1nc(NC(=O)CCCN[C@@H](CO)C(=O)O)sc1-c1ccc(Cl)c(S(C)(=O)=O)c1 [Example 45, N-[4-({5-[4-Chloro-3-(methylsulfonyl)phenyl]-4-methyl-1,3-thiazol-2-yl}amino)-4-oxobutyl]-L-serine] | > 1000 |  |
| Cc1nc(NC(=O)CCCN[C@@H](CCC(=O)O)C(=O)O)sc1-c1ccc(Cl)c(S(C)(=O)=O)c1 [Example 33, N-[4-({5-[4-Chloro-3-(methylsulfonyl)phenyl]-4-methyl-1,3-thiazol-2-yl}amino)-4-oxobutyl]-L-glutamic acid] | > 1000 |  |
| Cc1nc(NC(=O)N[C@@H](COC(C)(C)C)C(=O)O)sc1-c1ccc(Cl)c(S(C)(=O)=O)c1 [Example 30, O-tert-Butyl-N-({5-[4-chloro-3-(methylsulfonyl)phenyl]-4-methyl-1,3-thiazol-2-yl}carbamoyl)-L-serine] | > 1000 |  |
| Cc1nc(NC(=O)CCCN[C@@H](COC(C)(C)C)C(=O)O)sc1-c1ccc(Cl)c(S(C)(=O)=O)c1 [Example 37, O-tert-Butyl-N-[4-({5-[4-chloro-3-(methylsulfonyl)phenyl]-4-methyl-1,3-thiazol-2-yl}amino)-4-oxobutyl]-L-serine] | > 1000 |  |
| CC(=O)Nc1nc(C)c(-c2ccc(Cl)c(S(=O)(=O)NCCN[C@@H](CC(C)C)C(=O)O)c2)s1 [Example 43, N-[2-({[5-(2-Acetamido-4-methyl-1,3-thiazol-5-yl)-2-chlorophenyl]sulfonyl}amino)ethyl]-L-leucine] | > 1000 |  |
| Cc1nc(NC(=O)CCN[C@@H](C)C(=O)O)sc1-c1ccc(Cl)c(S(C)(=O)=O)c1 [Example 38, N-[3-({5-[4-Chloro-3-(methylsulfonyl)phenyl]-4-methyl-1,3-thiazol-2-yl}amino)-3-oxopropyl]-L-alanine] | > 1000 |  |
| Cc1nc(NC(=O)CCCN[C@@H](Cc2ccccc2)C(=O)O)sc1-c1ccc(Cl)c(S(C)(=O)=O)c1 [Example 36, N-[4-({5-[4-Chloro-3-(methylsulfonyl)phenyl]-4-methyl-1,3-thiazol-2-yl}amino)-4-oxobutyl]-L-phenylalanine] | > 1000 |  |
